According to patent US20050119337A1, “Methods of application of Schisandrin B in the preparation of anticancer medications” (priority 2003, published 2005):

Assays:
[1] = tested on: K562/vcr; experiment: Reversal of drug resistance, MTT assay, 48 h; assay type: cell-based
Description: To illustrate a method for reversal of drug resistance by application of Schisandrin B, cell lines K562/adr, K562/vcr (X. […] H. […] Cells were cultured in RPMI-1640 medium containing 10% fetal calf serum. […] The logarithmic growing cells were seeded into a 96 well plate (20,000 cells/well). Specific anticancer drugs (set forth in Table 1) and Schisandrin B in combination were added into the wells containing the select cell lines. […] Cell viability was assessed by MTT assays as described in X.

[2] = tested on: KBV200; experiment: Apoptosis induced by doxorubicin, Hoechst 33342/propidium iodide staining; assay type: cell-based, human; details: KBV200, A5 + S10: doxorubicin 5 μg/ml and Schisandrin B 10 μg/ml, 24 hours
Source text: (§1) Cells were collected and stained with fluorescent dyes Hoechst 33342 and propidium iodide. Hoechst 33342 stains the nuclei of cells with the color blue, and propidium iodide exclusively stains dead cells with the color of red. Accordingly, while Hoechst 33342 only stained the living cells blue, the dead cells were stained by both dyes with the colors of yellow, orange or red. The percentage of dead cells was counted under fluorescent microscope.

[3] = tested on: KB; experiment: as above; assay type: cell-based
Source text: as §1

[4] = tested on: KBV200-implanted tumor; experiment: In vivo reversal of drug resistance, KBV200-implanted tumor; design: species or system Balb/c nude mice
Description: Thirty nine Balb/c nu/nu female mice were inoculated subcutaneously with KBV200 cells (5×10^6 KBV200 cells/each mouse) on day 0. […] Mean body weights were recorded daily. All mice were observed once per day (or more) for mortality and signs of ill health (i.e., weight loss, change in appetite, or behavioral changes). Therapeutic comparisons were made between control and treatment groups by determining the tumor size. Tumor size was monitored approximately every other day by caliper measurements and calculated according to the formula [Tumor weight=(length×width^2)÷2]. The median survival times (MST) and the percent increase in life span (% ILS) were calculated as: % ILS=[(MSTtreatment/MSTcontrol)−1]×100.
“MST” represents median survival time. The survival rate (T/C %) was calculated by following equation: T/C(%)=[Average survival period in the test group/average survival period in the control group]×100. *P<0.05 compared to saline, vehicle, or Schisandrin B alone.

[5] = tested on: KBV200 cells; experiment: DNA fragmentation, agarose electrophoresis; assay type: cell-based, human; details: FIG. 13
Source text: The DNA of above cells was also extracted and subjected to agarose electrophoresis.

[6] = tested on: KBV200; experiment: Cell cycle distribution and hypodiploid cells, propidium iodide flow cytometry; assay type: cell-based, human
Description: The test cells were also analyzed by flow cytometry after being subjected to propidium iodide staining.

[7] = tested on: human epidermoid carcinoma MDR cell line KBV200; experiment: Reversal of drug resistance of KBV200, MTT assay, 72 h; assay type: cell-based
Description: (§2) In this embodiment, the IC50 of anticancer drugs in the presence or absence of Schisandrin B toward MDR cells was determined.
(§3) MTT assays were carried out in triplicate against human leukemia MDR cell line K562/adr and human epidermoid carcinoma MDR cell line KBV200. MTT assays as described previously (X. Hu, et al., Chemotherapy 41:296-305 (1995)) were used to determine the cytotoxicity of each anticancer drug in the presence or absence of Schisandrin B or verapmil.
Cells were treated with specific anticancer drugs as set forth therein. […] “SchB” represents cells treated with anticancer drugs in the presence of Schisandrin B (10 μg/ml).

[8] = tested on: human leukemia MDR cell line K562/adr; experiment: Reversal of drug resistance of K562/adr, MTT assay, 72 h; assay type: cell-based; details: K562/adr
Description: as §2, §3
Cells were treated with specific anticancer drugs as set forth therein. “Ctrl” represents control cells treated with anticancer drugs in the absence of Schisandrin B or verapamil. “SchB” represents cells treated with anticancer drugs in the presence of Schisandrin B (10 μg/ml).

[9] = KBV200, A1: doxorubicin 1 μg/ml
[10] = KBV200, A5: doxorubicin 5 μg/ml
[11] = KBV200, doxorubicin 1 μg/ml and Schisandrin B 10 μg/ml
[12] = KBV200, doxorubicin 5 μg/ml and Schisandrin B 10 μg/ml

## COc1cccc2c1C(=O)c1c(O)c3c(c(O)c1C2=O)C[C@@](O)(C(=O)CO)C[C@@H]3O[C@H]1C[C@H](N)[C@H](O)[C@H](C)O1 [Doxorubicin, doxorubicin]
[1]; Homo sapiens, anticancer drug toward K562/vcr in the absence of Schisandrin B, 48 h, read-out: IC50 Control
  IC50: 4.89 ± 0.21 µg/mL
[1]; IC50 in the absence of Schisandrin B divided by IC50 in the presence of Schisandrin B (10 μg/ml)
  RF (Reversal Folds): 25.7
[1]; anticancer drug toward K562/vcr in the presence of Schisandrin B (10 μg/ml), 48 h
  IC50 Schisandrin B: 0.19 ± 0.01 µg/mL
[2]
  % apoptosis: >90%
[3]; A1: doxorubicin 1 μg/ml
  % apoptosis: >90%
[3]; A5: doxorubicin 5 μg/ml
  % apoptosis: >90%
[4]; Balb/c nu/nu mice, KBV200 s.c., doxorubicin 5 mg/kg via tail vein, Schisandrin B via gastric intubation, days 11, 14, 18, 21, 25, FIG. 15
  tumor sizes versus control groups: not significantly different
[4]; Balb/c nude mice bearing KBV200-implanted tumor, doxorubicin 5 mg/kg i.v., Schisandrin B 50 mg/kg gastric intubation
  MST: not significantly prolonged
[4]; survival period in the test group / control group x 100, Balb/c nude mice bearing KBV200-implanted tumor
  T/C: 111.1%
[5]; KBV200, doxorubicin combined with Schisandrin B (10 μg/ml)
  DNA fragmentation: demonstrated DNA fragmentation
[5]; KBV200, doxorubicin in the absence of Schisandrin B
  DNA fragmentation: did not show the similar DNA fragmentation
[6]; [9]
  Cell cycle distribution G0/G1: 44.76%
  Cell cycle distribution G2/M: 10.14%
  Cell cycle distribution S: 45.09%
  hypodiploid %: 1.21%
[6]; [10]
  Cell cycle distribution G0/G1: 48.03%
  Cell cycle distribution G2/M: 9.60%
  Cell cycle distribution S: 42.37%
  hypodiploid %: 7.51%
[6]; [11]
  Cell cycle distribution G0/G1: 54.04%
  Cell cycle distribution G2/M: 5.66%
  Cell cycle distribution S: 40.30%
  hypodiploid %: 24.10%
[6]; [12]
  Cell cycle distribution G0/G1: 58.94%
  Cell cycle distribution G2/M: 1.70%
  Cell cycle distribution S: 39.36%
  hypodiploid %: 70.31%
[7]; Homo sapiens, anticancer drug alone, KBV200, 72 h, read-out: IC50 Control
  IC50: 0.327 ± 0.213 µg/mL
[7]; IC50 in the absence / IC50 in the presence of verapamil (6 μg/ml), KBV200
  RF (verapamil): 10.11
[7]; anticancer drug in the presence of Schisandrin B (10 μg/ml), KBV200
  IC50 Schisandrin B: 0.0691 ± 0.0137 µg/mL
[7]; anticancer drug in the presence of verapamil (6 μg/ml), KBV200
  IC50 verapamil: 0.0324 ± 0.0086 µg/mL
[8]; Homo sapiens, anticancer drug alone, 72 h, read-out: IC50 Control
  IC50: 1.42 ± 0.246 µg/mL
[8]; IC50 in the absence divided by IC50 in the presence of Schisandrin B (10 μg/ml)
  RF (Schisandrin B): 20.57
[8]; IC50 in the absence divided by IC50 in the presence of verapamil (6 μg/ml)
  RF (verapamil): 10.76
[8]; anticancer drug in the presence of Schisandrin B (10 μg/ml)
  IC50 Schisandrin B: 0.0691 ± 0.0137 µg/mL
[8]; anticancer drug in the presence of verapamil (6 μg/ml)
  IC50 verapamil: 0.1324 ± 0.0086 µg/mL
